Results as given in PubChem BioAssay AID1963982 (Molecular Pharmacology Branch, DTP, NCI, 2024).
Blank lines part the entries; values can stand above or below the molecule they belong to.

System: 313798-341-R-J2-PDC spheroids, viability
Experiment: Anticancer human tumor 313798-341-R-J2-PDC patient-derived cervical squamous cell carcinoma cell line growth inhibition [PI3K]
Settings: spheroids with HUVEC and MSC; for IC50: curve of first compound; for viability, T/C: stronger effect = lower value
Summary of the method: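 We assembled tumor spheroids that included a stromal compartment of HUVEC and MSCs, then exposed them to targeted agents alone and together with PI3K pathway inhibitors. Concentration series descended by half-log from clinically achievable Cmax levels. Viability served as the endpoint.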

[1] = second compound 0.0316 µM, first compound 0.0316 µM
[2] = second compound 0.0316 µM, first compound 0.1 µM
[3] = second compound 0.0316 µM, first compound 0.316 µM
[4] = second compound 0.0316 µM, first compound 1 µM
[5] = second compound 0.0316 µM, first compound 3.16 µM
[6] = second compound 0.0316 µM, first compound 10 µM
[7] = second compound 0.1 µM, first compound 0.0316 µM
[8] = second compound 0.1 µM, first compound 0.1 µM
[9] = second compound 0.1 µM, first compound 0.316 µM
[10] = second compound 0.1 µM, first compound 1 µM
[11] = second compound 0.1 µM, first compound 3.16 µM
[12] = second compound 0.1 µM, first compound 10 µM
[13] = second compound 0.316 µM, first compound 0.0316 µM
[14] = second compound 0.316 µM, first compound 0.1 µM
[15] = second compound 0.316 µM, first compound 0.316 µM
[16] = second compound 0.316 µM, first compound 1 µM
[17] = second compound 0.316 µM, first compound 3.16 µM
[18] = second compound 0.316 µM, first compound 10 µM
[19] = second compound 1 µM, first compound 0.0316 µM
[20] = second compound 1 µM, first compound 0.1 µM
[21] = second compound 1 µM, first compound 0.316 µM
[22] = second compound 1 µM, first compound 1 µM
[23] = second compound 1 µM, first compound 3.16 µM
[24] = second compound 1 µM, first compound 10 µM
[25] = second compound 0.00316 µM, first compound 0.0316 µM
[26] = second compound 0.00316 µM, first compound 0.1 µM
[27] = second compound 0.00316 µM, first compound 0.316 µM
[28] = second compound 0.00316 µM, first compound 1 µM
[29] = second compound 0.00316 µM, first compound 3.16 µM
[30] = second compound 0.00316 µM, first compound 10 µM
[31] = second compound 0.01 µM, first compound 0.0316 µM
[32] = second compound 0.01 µM, first compound 0.1 µM
[33] = second compound 0.01 µM, first compound 0.316 µM
[34] = second compound 0.01 µM, first compound 1 µM
[35] = second compound 0.01 µM, first compound 3.16 µM
[36] = second compound 0.01 µM, first compound 10 µM
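Note: spheroids exposed to compounds for seven days.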
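Throughout, for viability, T/C: 100% = DMSO vehicle control viability.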

IC50 (second compound 0.0316 µM): > 10 µM
IC50 (second compound 0.1 µM): > 10 µM
IC50 (second compound 0.316 µM): > 10 µM
IC50 (second compound 1 µM): > 10 µM
IC50 (second compound 3.16 µM): > 10 µM
IC50 (second compound 10 µM): > 10 µM
SMILES: C#Cc1c(F)ccc2cc(O)cc(-c3ncc4c(N5CC6CCC(C5)N6)nc(OCC56CCCN5CC(F)C6)nc4c3F)c12 (stereo unspecified) + CC(Nc1ncnc2nc[nH]c12)c1cc2cccc(Cl)c2c(=O)n1-c1ccccc1
viability, T/C [1]: 95.5%
viability, T/C [2]: 95.7%
viability, T/C [3]: 99%
viability, T/C [4]: 101%
viability, T/C [5]: 101%
viability, T/C [6]: 96.9%
viability, T/C [7]: 92.5%
viability, T/C [8]: 95.8%
viability, T/C [9]: 93.2%
viability, T/C [10]: 98.3%
viability, T/C [11]: 102%
viability, T/C [12]: 102%
viability, T/C [13]: 95.3%
viability, T/C [14]: 104%
viability, T/C [15]: 90.9%
viability, T/C [16]: 93.9%
viability, T/C [17]: 99.1%
viability, T/C [18]: 100%
viability, T/C [19]: 114%
viability, T/C [20]: 99.4%
viability, T/C [21]: 90.3%
viability, T/C [22]: 94.6%
viability, T/C [23]: 104%
viability, T/C [24]: 107%
viability, T/C (second compound 3.16 µM, first compound 0.0316 µM): 110%
viability, T/C (second compound 3.16 µM, first compound 0.1 µM): 97.2%
viability, T/C (second compound 3.16 µM, first compound 0.316 µM): 94.3%
viability, T/C (second compound 3.16 µM, first compound 1 µM): 101%
viability, T/C (second compound 3.16 µM, first compound 3.16 µM): 90.4%
viability, T/C (second compound 3.16 µM, first compound 10 µM): 99.9%
viability, T/C (second compound 10 µM, first compound 0.0316 µM): 93.2%
viability, T/C (second compound 10 µM, first compound 0.1 µM): 83.9%
viability, T/C (second compound 10 µM, first compound 0.316 µM): 81%
viability, T/C (second compound 10 µM, first compound 1 µM): 81.2%
viability, T/C (second compound 10 µM, first compound 3.16 µM): 85.1%
viability, T/C (second compound 10 µM, first compound 10 µM): 81.9%

IC50 (second compound 0.00316 µM): > 10 µM
IC50 (second compound 0.01 µM): > 10 µM
IC50 (second compound 0.0316 µM): > 10 µM
IC50 (second compound 0.1 µM): < 0.0316 µM
IC50 (second compound 0.316 µM): < 0.0316 µM
IC50 (second compound 1 µM): < 0.0316 µM
SMILES: CNC(=O)c1ccc(N2C(=S)N(c3ccc(C#N)c(C(F)(F)F)c3)C(=O)C2(C)C)cc1F + COc1c(OCCCN2CCOCC2)ccc2c3n(c(=NC(=O)c4cnc(N)nc4)nc12)CCN3
viability, T/C [25]: 98.3%
viability, T/C [26]: 117%
viability, T/C [27]: 102%
viability, T/C [28]: 112%
viability, T/C [29]: 99.8%
viability, T/C [30]: 87.1%
viability, T/C [31]: 102%
viability, T/C [32]: 100%
viability, T/C [33]: 97.3%
viability, T/C [34]: 115%
viability, T/C [35]: 94.7%
viability, T/C [36]: 96.7%
viability, T/C [1]: 73.3%
viability, T/C [2]: 79.2%
viability, T/C [3]: 73.2%
viability, T/C [4]: 71.3%
viability, T/C [5]: 74.1%
viability, T/C [6]: 62.8%
viability, T/C [7]: 37.3%
viability, T/C [8]: 42.9%
viability, T/C [9]: 39.7%
viability, T/C [10]: 40.8%
viability, T/C [11]: 34.9%
viability, T/C [12]: 31.8%
viability, T/C [13]: 15.5%
viability, T/C [14]: 16.6%
viability, T/C [15]: 13.9%
viability, T/C [16]: 13.4%
viability, T/C [17]: 14.8%
viability, T/C [18]: 12.3%
viability, T/C [19]: 11.8%
viability, T/C [20]: 9.64%
viability, T/C [21]: 11.3%
viability, T/C [22]: 9.53%
viability, T/C [23]: 9.76%
viability, T/C [24]: 8.76%

IC50 (second compound 0.00316 µM): > 10 µM
IC50 (second compound 0.01 µM): > 10 µM
IC50 (second compound 0.0316 µM): > 10 µM
IC50 (second compound 0.1 µM): < 0.0316 µM
IC50 (second compound 0.316 µM): < 0.0316 µM
IC50 (second compound 1 µM): < 0.0316 µM
SMILES: CC1(C)CCC(CN2CCN(c3ccc(C(=O)NS(=O)(=O)c4ccc(NCC5CCOCC5)c([N+](=O)[O-])c4)c(Oc4cnc5[nH]ccc5c4)c3)CC2)=C(c2ccc(Cl)cc2)C1 + COc1c(OCCCN2CCOCC2)ccc2c3n(c(=NC(=O)c4cnc(N)nc4)nc12)CCN3
viability, T/C [25]: 98.3%
viability, T/C [26]: 107%
viability, T/C [27]: 113%
viability, T/C [28]: 101%
viability, T/C [29]: 87.7%
viability, T/C [30]: 102%
viability, T/C [31]: 105%
viability, T/C [32]: 110%
viability, T/C [33]: 88.7%
viability, T/C [34]: 96.5%
viability, T/C [35]: 66.1%
viability, T/C [36]: 95.2%
viability, T/C [1]: 70%
viability, T/C [2]: 77.1%
viability, T/C [3]: 69.3%
viability, T/C [4]: 75.8%
viability, T/C [5]: 47.4%
viability, T/C [6]: 73.2%
viability, T/C [7]: 44.4%
viability, T/C [8]: 41.4%
viability, T/C [9]: 40.3%
viability, T/C [10]: 37.8%
viability, T/C [11]: 35.1%
viability, T/C [12]: 41.2%
viability, T/C [13]: 14.6%
viability, T/C [14]: 14.6%
viability, T/C [15]: 16.5%
viability, T/C [16]: 14.2%
viability, T/C [17]: 13.3%
viability, T/C [18]: 15%
viability, T/C [19]: 9.63%
viability, T/C [20]: 9.06%
viability, T/C [21]: 11.1%
viability, T/C [22]: 10.6%
viability, T/C [23]: 12%
viability, T/C [24]: 11.2%
